This note sets out measurements from PubChem BioAssay (NCI).

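Results reflect a 48-hour exposure of cells in 96-well plates to compound at five concentrations. GI50 is the concentration that inhibits growth by half. At the TGI there is no net growth.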 Bounds are passed on as bounds.

Some test systems named below: HS 578T breast; HL-60(TB) leukemia; HCT-15 colon; MDA-MB-231 breast; HOP-62 NSCLC; K-562 leukemia; HCT-116 colon; ACHN renal; SW-620 colon; NCI/ADR-RES ovarian; SK-OV-3 ovarian; NCI-H460 lung; BT-549 breast; EKVX NSCLC; A498 renal; KM20L2 colon; SN12K1 renal; M19-MEL melanoma; DMS 114 small cell lung.
Holding throughout (test): NCI anticancer screen, dose series, 48 h

`CC(=O)OC[C@H]1[C@@H]2C(CC[C@]13CO3)OC(=O)CC(C)[C@]2(C)CCc1ccoc1` (stereo not given in full): the TGI with HS 578T breast, with HL-60(TB) leukemia, in the assay with HCT-15 colon, with MDA-MB-231 breast, in the assay with HOP-62 NSCLC and with K-562 leukemia was above 100 µM each time. Moreover, the TGI in the assay with HCT-116 colon, with ACHN renal, in the assay on SW-620 colon, with NCI/ADR-RES ovarian, in the assay with SK-OV-3 ovarian and in the assay with NCI-H460 lung was above 100 µM throughout. Also, the TGI with BT-549 breast, with EKVX NSCLC and in the assay with A498 renal was above 100 µM throughout.
For the molecule `COc1ccc2c(c1)CCCc1cn[nH]c1-2`, the TGI in the assay on HL-60(TB) leukemia, in the assay with HCT-15 colon, in the assay with HOP-62 NSCLC, in the assay with K-562 leukemia, with KM20L2 colon and in the assay with HCT-116 colon was above 100 µM each time. Further, the TGI in the assay on SN12K1 renal, in the assay on SW-620 colon, in the assay on M19-MEL melanoma, in the assay on NCI/ADR-RES ovarian, in the assay with DMS 114 small cell lung and with SK-OV-3 ovarian was above 100 µM each time. Further, the TGI in the assay with NCI-H460 lung, in the assay on EKVX NSCLC and with A498 renal was above 100 µM throughout.
Take `COc1ccc(-c2c(C#N)c(NC(=S)NC(=O)c3ccccc3)nc3c2CCCC3)cc1OC`: the TGI with HS 578T breast, with HL-60(TB) leukemia, in the assay with HCT-15 colon, in the assay with MDA-MB-231 breast, with HOP-62 NSCLC and with K-562 leukemia was above 100 µM each time. Besides, the TGI with HCT-116 colon, in the assay on ACHN renal, with SW-620 colon, in the assay on NCI/ADR-RES ovarian, in the assay with SK-OV-3 ovarian and in the assay with NCI-H460 lung was above 100 µM each time. Further, the TGI in the assay with BT-549 breast was above 100 µM; with EKVX NSCLC, 70.4 µM.
Regarding `O=[N+]([O-])c1ccccc1N=Nc1c(O)sc2ccccc12`, the TGI in the assay with HS 578T breast, with HL-60(TB) leukemia, in the assay on HCT-15 colon, in the assay on HOP-62 NSCLC, with K-562 leukemia and in the assay on HCT-116 colon was above 100 µM each time. For the same molecule, the TGI in the assay with ACHN renal, in the assay with SW-620 colon, in the assay with SK-OV-3 ovarian, in the assay on NCI-H460 lung, in the assay with EKVX NSCLC and with A498 renal was above 100 µM in each case.
Consider `COC(=O)C1(c2ccc(N(C)C)cc2OC)CCCN(C(=O)Oc2ccccc2[N+](=O)[O-])CCc2c1[nH]c1ccccc21` (stereo not given), for which the TGI with HS 578T breast, with HL-60(TB) leukemia, in the assay on MDA-MB-231 breast, in the assay on HOP-62 NSCLC, in the assay with K-562 leukemia and in the assay with HCT-116 colon was above 100 µM throughout. Moreover, the TGI with SW-620 colon, with NCI/ADR-RES ovarian, in the assay with SK-OV-3 ovarian, with NCI-H460 lung, in the assay on BT-549 breast and in the assay with EKVX NSCLC was above 100 µM throughout. The molecule further displayed a TGI with A498 renal above 100 µM.
As for `Oc1ccc2ccccc2c1N=Nc1ccc(F)cc1`, the TGI in the assay with HL-60(TB) leukemia, in the assay with HCT-15 colon, with HOP-62 NSCLC, in the assay with K-562 leukemia, with KM20L2 colon and with HCT-116 colon was above 100 µM throughout. Moreover, the TGI in the assay on ACHN renal, with SW-620 colon, in the assay with M19-MEL melanoma, with DMS 114 small cell lung, in the assay on SK-OV-3 ovarian and with NCI-H460 lung was above 100 µM throughout. This molecule also came in with a TGI with A498 renal above 100 µM.
On to `CN(CCCNc1ccc2ncn3c4ccccc4c(=O)c1c23)CCCN1C(=O)c2cccc3cc([N+](=O)[O-])cc(c23)C1=O`, for which the TGI with HS 578T breast was 2.42 µM; in the assay on HCT-15 colon it was 0.326 µM; with MDA-MB-231 breast, 1.26 µM; in the assay with HOP-62 NSCLC, 2.15 µM; in the assay on K-562 leukemia, 0.398 µM; in the assay on HCT-116 colon, 0.02 µM. The TGI in the assay on ACHN renal turned out to be 1.21 µM; in the assay on NCI/ADR-RES ovarian, 1.69 µM; in the assay with SK-OV-3 ovarian it was 2.69 µM; in the assay on NCI-H460 lung, 0.0224 µM; with BT-549 breast, 2.01 µM; in the assay on EKVX NSCLC, 2.16 µM. In addition, the TGI in the assay with A498 renal turned out to be 4.53 µM. The GI50 in the assay on HL-60(TB) leukemia was 0.191 µM.
As for `CC(C)CCN=c1cc2n(-c3ccc(Cl)cc3)c3ccccc3nc-2cc1Nc1ccc(Cl)cc1`, the TGI was 11.1 µM in the assay on HL-60(TB) leukemia; 23.2 µM in the assay with HCT-15 colon; 26.1 µM in the assay on HOP-62 NSCLC; 26.4 µM in the assay on K-562 leukemia; 19.7 µM in the assay on KM20L2 colon; 11.4 µM in the assay with HCT-116 colon. For the same molecule, the TGI in the assay with SN12K1 renal is 23.7 µM; with SW-620 colon it was above 70.3 µM; in the assay on M19-MEL melanoma, 20.2 µM; in the assay with NCI/ADR-RES ovarian, 28.6 µM; in the assay on DMS 114 small cell lung it was 7.63 µM; with SK-OV-3 ovarian it was 70.2 µM. For the same molecule, the TGI in the assay on NCI-H460 lung was 15.6 µM; in the assay on EKVX NSCLC, above 53 µM; with A498 renal it was 48.5 µM.
`CC(C(=O)O)c1cnn(-c2ccccc2)c1-n1cccc1` (stereo not given): the TGI in the assay with HL-60(TB) leukemia, in the assay with HCT-15 colon, with HOP-62 NSCLC, with K-562 leukemia, with KM20L2 colon and in the assay on HCT-116 colon was above 100 µM throughout. In addition, the TGI in the assay with SN12K1 renal, with SW-620 colon, with M19-MEL melanoma, in the assay on NCI/ADR-RES ovarian, in the assay with SK-OV-3 ovarian and with NCI-H460 lung was above 100 µM each time. For the same molecule, the TGI with EKVX NSCLC and with A498 renal was above 100 µM in each case.
Consider `C=CCNc1ccc(C)cc1`, for which the TGI in the assay on HS 578T breast, in the assay on HCT-15 colon, in the assay on MDA-MB-231 breast, in the assay with K-562 leukemia, in the assay with HCT-116 colon and in the assay on ACHN renal was above 100 µM in each case. The TGI was above 100 µM in the assay with SW-620 colon, above 100 µM with NCI/ADR-RES ovarian, above 100 µM in the assay with NCI-H460 lung and 30.7 µM in the assay with A498 renal.
